Where “and” joins values, the source holds several entries; their conditions need not be identical. Equal entries are not always repeated. Where two headings read alike, the source gives them in different places.
Target: T1, canine TRPM8 (Canis lupus familiaris, UniProt Q1A7N1)
T1 construct: expressed in transfected cells
Experiment: In vitro canine TRPM8 functional assay (Ca2+-sensitive dye, FLIPR/FDSS, icilin activation)
Format: cell-based
Conditions: HEK293 cells expressing canine TRPM8, icilin activation; for % I (0.5 μM): 0.5 μM compound; for IC50: eight-point dose-response; for % I (1 μM): 1 μM compound
Experimental: The functional activity of compounds of Formula (I) was determined by measuring changes in intracellular calcium concentration using a Ca^2+-sensitive fluorescent dye. The changes in fluorescent signal were monitored by a fluorescence plate reader, either a FLIPR™ (Molecular Devices) or FDSS (Hamamatsu).
HEK293 cells stably expressing canine TRPM8 were routinely grown as monolayers in Dulbecco's minimum essential medium supplemented with 10% FBS, 1 mM L-glutamine, 100 units/mL penicillin, 100 ug/mL streptomycin and 400 μg/mL G418. Cells were maintained in 5% CO2 at 37° C. At 24 hrs prior to assay, cells were seeded in clear-base poly-D-lysine coated 384-well plates (BD Biosciences, NJ, USA) at a density of 5,000 cells per well in culture medium and grown overnight in 5% CO2 at 37° C. On assay day, growth media was removed and cells were loaded with Calcium 3 Dye (Molecular Devices) for 35 min at 37° C., under 5% CO2 and then for 25 min at room temperature and atmosphere. Subsequently, cells were tested for agonist-induced increases in intracellular Ca^2+ levels using FLIPR™ or FDSS. Cells were challenged with a compound of Formula (I) (at varying concentrations) and intracellular Ca^2+ was measured for 5 min prior to the addition of icilin to all wells to achieve a final concentration which produces approximately an 80% maximal response.
Basal FI was subtracted prior to normalizing data to percent of maximal response. Curves were generated using the average of quadruplicate wells for each data point, were analyzed using nonlinear regression of either sigmoidal dose response or sigmoidal dose response (variable slope). Finally, the EC50 and IC50 values were calculated with the best-fit dose curve determined by GraphPad Prism.

[1] = HEK293, read-out: % I (1 μM), 1 μM compound
[2] = HEK293, 1 μM compound, read-out: % I (1 μM)

T1 sequence (Q1A7N1 1-1104): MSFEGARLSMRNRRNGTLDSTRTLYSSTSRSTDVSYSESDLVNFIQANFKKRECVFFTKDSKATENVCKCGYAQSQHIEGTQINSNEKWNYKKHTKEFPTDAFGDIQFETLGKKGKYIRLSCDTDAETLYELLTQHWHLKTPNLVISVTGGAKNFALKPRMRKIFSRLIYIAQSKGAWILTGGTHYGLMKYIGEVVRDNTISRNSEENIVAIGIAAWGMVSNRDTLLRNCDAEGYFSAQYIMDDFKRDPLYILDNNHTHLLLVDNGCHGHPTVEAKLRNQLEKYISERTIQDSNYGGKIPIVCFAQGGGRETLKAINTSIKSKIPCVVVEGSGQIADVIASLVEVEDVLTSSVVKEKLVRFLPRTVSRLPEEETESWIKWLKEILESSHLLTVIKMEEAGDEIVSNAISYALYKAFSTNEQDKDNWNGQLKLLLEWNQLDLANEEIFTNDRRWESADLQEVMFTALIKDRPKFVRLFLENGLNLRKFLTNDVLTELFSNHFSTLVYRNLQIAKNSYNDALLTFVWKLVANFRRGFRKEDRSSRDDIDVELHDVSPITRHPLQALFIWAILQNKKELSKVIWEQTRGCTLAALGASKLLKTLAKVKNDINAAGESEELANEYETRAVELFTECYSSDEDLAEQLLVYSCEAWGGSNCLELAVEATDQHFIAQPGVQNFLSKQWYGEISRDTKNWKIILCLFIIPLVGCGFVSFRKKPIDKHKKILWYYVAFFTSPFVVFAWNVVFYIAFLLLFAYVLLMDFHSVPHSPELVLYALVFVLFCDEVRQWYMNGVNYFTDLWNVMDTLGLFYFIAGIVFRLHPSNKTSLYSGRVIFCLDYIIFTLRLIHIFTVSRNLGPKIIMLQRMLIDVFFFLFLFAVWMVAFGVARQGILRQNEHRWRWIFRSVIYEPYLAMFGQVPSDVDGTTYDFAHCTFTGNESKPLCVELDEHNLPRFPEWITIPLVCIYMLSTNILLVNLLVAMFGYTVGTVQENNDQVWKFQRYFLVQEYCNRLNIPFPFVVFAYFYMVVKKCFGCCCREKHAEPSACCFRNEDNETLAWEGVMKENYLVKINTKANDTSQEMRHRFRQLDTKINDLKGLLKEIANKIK

Structure (SMILES)	% I (0.5 μM)	IC50 (read-out: IC50)	further results
CCOP(=O)(OCC)C(Cc1ccc(SC)cc1)c1sc2ccccc2c1Br (racemic) [Cpd 247]	103%	0.121 µM	–
CC(C)OP(=O)(OC(C)C)C(Cc1ccc(F)c(Cl)c1)c1sc2ccccc2c1Br (racemic) [Cpd 248]	104%	0.021 µM	–
CCOP(=O)(OCC)C(Cc1ccccc1C(F)(F)F)c1sc2ccccc2c1Cl (racemic) [Cpd 279]	97%	0.291 µM	–
CCOP(=O)(OCC)C(Cc1cccc(C(F)(F)F)c1Cl)c1sc2ccccc2c1Cl (racemic) [Cpd 280]	101%	0.227 µM	–
CCOP(=O)(OCC)C(Cc1cccc(C(F)(F)F)c1F)c1sc2ccccc2c1Cl (racemic) [Cpd 281]	102%	0.131 µM	–
CCOP(=O)(OCC)C(Cc1cc(C(F)(F)F)cc(C(F)(F)F)c1)c1sc2ccccc2c1Cl (racemic) [Cpd 282]	100%	0.235 µM	–
CCOP(=O)(OCC)C(Cc1ccc(SC(F)(F)F)cc1)c1sc2ccccc2c1Cl (racemic) [Cpd 283]	103%	0.125 µM	–
CCOP(=O)(OCC)C(Cc1ccc(F)cc1)c1sc2ccccc2c1Cl (racemic) [Cpd 284]	103% and 102%	0.079 µM and 0.065 µM	–
CCOP(=O)(OCC)C(Cc1ccc(C(F)(F)F)cc1)c1sc2ccccc2c1Cl (racemic) [Cpd 285]	103%	0.125 µM	–
CCOP(=O)(OCC)C(Cc1cc(C(F)(F)F)ccc1F)c1sc2ccccc2c1Cl (racemic) [Cpd 286]	102%	0.127 µM	–
CCOP(=O)(OCC)C(Cc1ccc(Cl)c(C(F)(F)F)c1)c1sc2ccccc2c1Cl (racemic) [Cpd 287]	103%	0.124 µM	–
CC(C)OP(=O)(OC(C)C)C(Cc1ccc(Cl)cc1)c1sc2ccccc2c1Br (racemic) [Cpd 288]	103%	0.065 µM	–
CC(C)OP(=O)(OC(C)C)C(Cc1ccc(C(F)(F)F)cc1F)c1sc2ccccc2c1Br (racemic) [Cpd 289]	103%	0.051 µM	–
CCOP(=O)(OCC)C(Cc1cccc(Cl)c1)c1sc2ccccc2c1Cl (racemic) [Cpd 290]	103%	0.115 µM	–
CCOP(=O)(OCC)C(Cc1ccc(C(F)(F)F)cc1F)c1sc2ccccc2c1Cl (racemic) [Cpd 291]	103%	0.156 µM	–
CCOP(=O)(OCC)C(Cc1ccc(OC)c(C(F)(F)F)c1)c1sc2ccccc2c1Cl (racemic) [Cpd 292]	99%	0.216 µM	–
CCOP(=O)(OCC)C(Cc1ccc(Cl)cc1)c1sc2ccccc2c1Cl (racemic) [Cpd 293]	103%	0.156 µM	–
CCOP(=O)(OCC)C(Cc1ccc(F)c(C(F)(F)F)c1)c1sc2ccccc2c1Cl (racemic) [Cpd 294]	103%	0.118 µM	–
CCOP(=O)(OCC)C(Cc1cccc(Br)c1)c1sc2ccccc2c1Br (racemic) [Cpd 295]	102% and 103%	0.031 µM and 0.016 µM	–
CCOP(=O)(OCC)C(Cc1ccc(F)c(Cl)c1)c1sc2ccccc2c1Cl (racemic) [Cpd 297]	103%	0.04 µM	–
CCOP(=O)(OCC)C(Cc1ccc(S(=O)(=O)C(F)(F)F)cc1)c1sc2ccccc2c1Cl (racemic) [Cpd 300]	103%	0.089 µM	–
CC(C)OP(=O)(OC(C)C)C(Cc1cccc(OC(F)(F)F)c1)c1sc2ccccc2c1Cl (racemic) [Cpd 301]	102%	0.054 µM	–
CC(C)OP(=O)(OC(C)C)C(Cc1ccc(Cl)c(F)c1)c1sc2ccccc2c1Cl (racemic) [Cpd 302]	103%	0.079 µM	–
CC(C)OP(=O)(OC(C)C)C(Cc1cc(Cl)ccc1F)c1sc2ccccc2c1Cl (racemic) [Cpd 303]	102%	0.049 µM	–

Structure (SMILES)	% I (0.5 μM)	IC50 (read-out: IC50)	further results
CC(C)OP(=O)(OC(C)C)C(Cc1ccc(SC(F)(F)F)cc1)c1sc2ccccc2c1Cl (racemic) [Cpd 304]	102%	0.028 µM	–
CCOP(=O)(OCC)C(Cc1cc(Cl)ccc1F)c1sc2ccccc2c1Cl (racemic) [Cpd 305]	102%	0.07 µM	–
CC(C)OP(=O)(OC(C)C)C(Cc1ccc(F)cc1)c1sc2ccccc2c1Cl (racemic) [Cpd 306]	101% and 102%	–	–
CCOP(=O)(OCC)C(Cc1cc(Cl)ccc1F)c1sc2ccccc2c1Br (racemic) [Cpd 307]	103%	0.026 µM	–
CC(C)OP(=O)(OC(C)C)C(Cc1cc(Cl)ccc1F)c1sc2ccccc2c1Br (racemic) [Cpd 308]	103%	0.017 µM	–
CCOP(=O)(OCC)C(Cc1ccc(F)c(F)c1)c1sc2cccc(F)c2c1C (stereo not drawn) [Cpd 3, [2-(3,4-Difluoro-phenyl)-1-(4-fluoro-3-methyl-benzo[b]-thiophene-2-yl)-ethyl]-phosphonic acid diethyl ester]	–	–	inhibition at 1 µM [1]: 100%; IC50 (IC50 (μM)): 0.012 µM and 0.051 µM
CCOP(=O)(CC(C)C)C(Cc1ccc(F)c(F)c1)c1sc2ccccc2c1C (stereo not drawn) [Cpd 6, [2-(3,4-Difluoro-phenyl)-1-(3-methyl-benzo[b]thiophene-2-yl)-ethyl]-isobutyl-phosphonic acid ethyl ester]	–	0.028 µM	% I (1 μM): 100%
CCOP(=O)(OCC)C(Cc1ccc(F)c(F)c1)c1sc2c(F)cccc2c1C (stereo not drawn) [Cpd 8, [2-(3,4-Difluoro-phenyl)-1-(7-fluoro-3-methyl-benzo[b-]thiophene-2-yl)-ethyl]-phosphonic acid diethyl ester]	–	–	inhibition at 1 µM [1]: 100%; IC50 (IC50 (μM)): 0.037 µM
CCOP(=O)(OCC)C(Cc1ccc(F)c(F)c1)c1oc2ccccc2c1C (stereo not drawn) [Cpd 9, [2-(3,4-Difluoro-phenyl)-1-(3-methyl-benzofuran-2-yl)-ethyl]-phosphonic acid diethyl ester]	–	–	inhibition at 1 µM [1]: 100%; IC50 (IC50 (μM)): 0.041 µM
CCOP(=O)(OCC)C(Cc1cccc(F)c1F)c1sc2ccccc2c1C (stereo not drawn) [Cpd 10]	–	0.043 µM	% I (1 μM): 100%
Cc1c(C(Cc2ccc(F)c(F)c2)P(=O)(OC(C)C)OC(C)C)oc2ccccc12 (stereo not drawn) [Cpd 11]	–	0.043 µM and 0.047 µM	% I (1 μM): 99% and 103%
Cc1c(C(OCc2ccc(F)c(F)c2)P(=O)(CC(C)C)CC(C)C)sc2ccccc12 (stereo not drawn) [Cpd 13, 2-[(3,4-Difluoro-benzyloxy)-(diisobutyl-phosphinoyl)-methyl]-3-methyl-benzo[b]thiophene]	–	0.046 µM	inhibition at 1 µM [2]: 100%
CCOP(=O)(OCC)C(Cc1ccc(F)c(F)c1)c1sc2cc(F)ccc2c1C (stereo not drawn) [Cpd 16, [2-(3,4-Difluoro-phenyl)-1-(6-fluoro-3-methyl-benzo[b]-thiophene-2-yl)-ethyl]-phosphonic acid diethyl ester]	–	–	inhibition at 1 µM [1]: 100%; IC50 (IC50 (μM)): 0.057 µM and 0.064 µM
CC(C)OP(=O)(OC(C)C)C(Cc1ccc(F)c(F)c1)c1sc2ccccc2c1C(C)C (stereo not drawn) [Cpd 19]	–	0.068 µM	% I (1 μM): 100%
CC(C)OP(=O)(OC(C)C)C(Cc1ccc(F)c(F)c1)c1sc2ccccc2c1C1CC1 (stereo not drawn) [Cpd 20, [1-(3-Cyclopropyl-benzo[b]thiophene-2-yl)-2-(3,4-difluoro-phenyl)-ethyl]-phosphonic acid diisopropyl ester]	–	0.07 µM	inhibition at 1 µM [2]: 100%
CCOP(=O)(OCC)C(Cc1cccc(Cl)c1F)c1sc2ccccc2c1C (stereo not drawn) [Cpd 23]	–	0.096 µM	% I (1 μM): 100%
CCOP(=O)(OCC)C(Cc1ccc(Cl)c(Cl)c1)c1sc2ccccc2c1Br (stereo not drawn) [Cpd 24, [1-(3-Bromo-benzo[b]thiophen-2-yl)-2-(3,4-dichloro-phenyl)-ethyl]-phosphonic acid diethyl ester]	–	–	inhibition at 1 µM [1]: 100%; IC50 (IC50 (μM)): 0.107 µM
CC(C)OP(=O)(OC(C)C)C(Cc1ccc(F)c(F)c1)c1nc2ccccc2s1 (stereo not drawn) [Cpd 25, [1-Benzothiazol-2-yl-2-(3,4-difluoro-phenyl)-ethyl]-phosphonic acid diisopropyl ester]	–	0.12 µM and 0.19 µM	inhibition at 1 µM [2]: 101%
CCOP(=O)(OCC)C(Cc1ccccc1C)c1sc2ccccc2c1C (stereo not drawn) [Cpd 26]	–	0.108 µM	% I (1 μM): 100%
CCOP(=O)(OCC)C(Cc1ccc(F)cc1Cl)c1sc2ccccc2c1C (stereo not drawn) [Cpd 27]	–	0.11 µM	% I (1 μM): 99%
CCOP(=O)(OCC)C(Cc1cc(F)cc(F)c1Cl)c1sc2ccccc2c1C (stereo not drawn) [Cpd 28]	–	0.11 µM	% I (1 μM): 100%
CCOP(=O)(OCC)C(Cc1cccc(Cl)c1Cl)c1sc2ccccc2c1C (stereo not drawn) [Cpd 35]	–	0.125 µM	% I (1 μM): 100%
CCOP(=O)(CC(C)C)C(Cc1ccc(F)c(F)c1)c1sc2ccccc2c1C (stereo not drawn) [Cpd 36, [2-(3,4-Difluoro-phenyl)-1-(3-methyl-benzo[b]thiophene-2-yl)-ethyl]-isobutyl-phosphonic acid ethyl ester]	–	0.126 µM	% I (1 μM): 100%
